These results are taken from ChEMBL document CHEMBL2177016 (J Med Chem, 2012).

Activity calls are given as the source filed them. The rule behind the calls is not given here.

One assay deals with T1, Carbonic anhydrase 2 (Mycobacterium tuberculosis, UniProt P9WPJ9).
T1 sequence (P9WPJ9 whole entry): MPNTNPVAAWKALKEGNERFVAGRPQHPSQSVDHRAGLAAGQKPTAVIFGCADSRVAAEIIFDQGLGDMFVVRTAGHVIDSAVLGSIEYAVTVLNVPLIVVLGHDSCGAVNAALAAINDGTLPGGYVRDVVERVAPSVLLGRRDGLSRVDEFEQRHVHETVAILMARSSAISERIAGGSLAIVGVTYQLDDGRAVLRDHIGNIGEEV

Assay [1] concerns the target T2, PROBABLE TRANSMEMBRANE CARBONIC ANHYDRASE (CARBONATE DEHYDRATASE) (CARBONIC DEHYDRATASE) (Mycobacterium tuberculosis, UniProt P96878).
T2 sequence (P96878 whole entry): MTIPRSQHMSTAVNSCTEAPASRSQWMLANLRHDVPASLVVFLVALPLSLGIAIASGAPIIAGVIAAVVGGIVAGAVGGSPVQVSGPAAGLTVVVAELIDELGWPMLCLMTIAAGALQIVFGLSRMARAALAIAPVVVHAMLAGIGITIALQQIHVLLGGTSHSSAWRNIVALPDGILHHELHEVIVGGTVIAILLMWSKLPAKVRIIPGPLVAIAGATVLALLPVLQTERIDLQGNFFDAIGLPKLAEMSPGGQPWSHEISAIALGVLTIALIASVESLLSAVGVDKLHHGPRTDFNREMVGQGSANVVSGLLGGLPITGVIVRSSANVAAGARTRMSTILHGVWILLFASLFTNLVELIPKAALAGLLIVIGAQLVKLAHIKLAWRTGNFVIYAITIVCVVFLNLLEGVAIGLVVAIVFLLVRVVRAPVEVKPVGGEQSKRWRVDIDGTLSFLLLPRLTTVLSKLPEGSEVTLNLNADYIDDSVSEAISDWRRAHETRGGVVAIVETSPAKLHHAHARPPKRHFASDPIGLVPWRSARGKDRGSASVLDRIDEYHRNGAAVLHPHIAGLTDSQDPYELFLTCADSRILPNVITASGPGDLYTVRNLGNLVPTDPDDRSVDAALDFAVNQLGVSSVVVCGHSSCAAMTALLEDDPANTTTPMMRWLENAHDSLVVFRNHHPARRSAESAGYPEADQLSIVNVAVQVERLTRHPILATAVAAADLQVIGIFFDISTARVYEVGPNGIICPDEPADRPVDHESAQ
Description: Inhibition of Mycobacterium tuberculosis recombinant carbonic anhydrase Rv3273 pre-incubated for 15 mins by stopped-flow CO2 hydration method

Assay [2] addresses T3, Prostaglandin G/H synthase 2 (Ovis aries) (UniProt P79208).
T3 sequence (whole entry): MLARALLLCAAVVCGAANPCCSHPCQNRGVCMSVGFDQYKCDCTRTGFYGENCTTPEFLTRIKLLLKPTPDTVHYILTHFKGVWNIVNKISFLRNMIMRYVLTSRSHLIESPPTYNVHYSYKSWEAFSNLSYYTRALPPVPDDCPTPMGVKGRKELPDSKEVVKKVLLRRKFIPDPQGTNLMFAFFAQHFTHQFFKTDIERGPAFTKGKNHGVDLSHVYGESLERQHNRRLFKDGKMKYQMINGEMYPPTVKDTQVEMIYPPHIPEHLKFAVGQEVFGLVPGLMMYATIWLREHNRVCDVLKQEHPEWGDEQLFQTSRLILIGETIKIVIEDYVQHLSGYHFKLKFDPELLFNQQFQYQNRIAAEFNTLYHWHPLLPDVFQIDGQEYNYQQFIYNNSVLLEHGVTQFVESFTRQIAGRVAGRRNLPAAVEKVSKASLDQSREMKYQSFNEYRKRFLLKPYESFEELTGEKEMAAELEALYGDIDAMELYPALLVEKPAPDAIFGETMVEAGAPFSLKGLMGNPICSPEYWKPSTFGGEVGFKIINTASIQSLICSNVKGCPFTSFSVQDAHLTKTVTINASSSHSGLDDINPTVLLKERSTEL
Description: Inhibition of ovine COX2 at 100 uM incubated for 5 mins by colorimetric assay.

Another assay addresses Carbonic anhydrase 9 (Homo sapiens, UniProt Q16790).
For assay [3], the target named is T4, Beta-carbonic anhydrase 1 (Mycobacterium tuberculosis, UniProt P9WPJ7).
T4 sequence (P9WPJ7 whole entry): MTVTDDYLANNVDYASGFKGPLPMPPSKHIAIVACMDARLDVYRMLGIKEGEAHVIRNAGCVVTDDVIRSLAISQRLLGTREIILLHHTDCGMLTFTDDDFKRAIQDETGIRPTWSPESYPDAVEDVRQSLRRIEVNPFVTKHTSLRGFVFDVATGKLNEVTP
Description: Inhibition of Mycobacterium tuberculosis recombinant carbonic anhydrase Rv1284 pre-incubated for 15 mins by stopped-flow CO2 hydration method

Another assay deals with Carbonic anhydrase 3 (Homo sapiens, UniProt P07451).
Carbonic anhydrase 3, sequence (P07451 whole entry): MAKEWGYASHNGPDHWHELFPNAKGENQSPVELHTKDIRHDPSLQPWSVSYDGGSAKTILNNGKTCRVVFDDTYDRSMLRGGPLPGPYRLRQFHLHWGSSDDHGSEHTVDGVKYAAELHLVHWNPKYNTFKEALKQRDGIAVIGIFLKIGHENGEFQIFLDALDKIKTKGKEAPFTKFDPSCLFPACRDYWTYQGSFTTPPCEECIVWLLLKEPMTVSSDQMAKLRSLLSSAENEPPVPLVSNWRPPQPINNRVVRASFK

Description for Carbonic anhydrase 2: Inhibition of Mycobacterium tuberculosis recombinant carbonic anhydrase Rv3588c pre-incubated for 15 mins by stopped-flow CO2 hydration method
Description for Carbonic anhydrase 3: Inhibition of human recombinant full length CA3 pre-incubated for 15 mins by stopped-flow CO2 hydration method
Description for Carbonic anhydrase 9: Inhibition of human recombinant CA9 catalytic domain pre-incubated for 15 mins by stopped-flow CO2 hydration method

For the compound `COc1ccc2c(c1)SCc1cnn(-c3ccc(S(N)(=O)=O)cc3)c1-2`, the Ki on Carbonic anhydrase 2 was 0.61 µM; in assay [1] it was 0.75 µM; on Carbonic anhydrase 9, 2.18 µM; in assay [3], 0.87 µM. Besides, in assay [2], the inhibition entry is “inactive”.

Consider `Cc1ccc2c(n1)SCc1cnn(-c3ccc(S(N)(=O)=O)cc3)c1-2`, for which the Ki at Carbonic anhydrase 2 came out at 0.144 µM; in assay [1], 0.241 µM; in assay [3], 0.115 µM. The inhibition result in assay [2] is “inactive”.

As to `NS(=O)(=O)c1ccc(-n2ncc3c2-c2ccc(C(F)(F)F)cc2SC3)cc1`, the inhibitory constant (Ki) at Carbonic anhydrase 2 came to 0.357 µM; in assay [1], 0.238 µM; on Carbonic anhydrase 9, 2.57 µM; in assay [3], 0.613 µM. In addition, in assay [2], the inhibition result is “inactive”.

For `NS(=O)(=O)c1ccc(-n2ncc3c2-c2ccc(Cl)cc2SC3)cc1`, the Ki at Carbonic anhydrase 2 worked out at 0.235 µM; in assay [1], 0.316 µM; on Carbonic anhydrase 9, 1.84 µM; in assay [3], 0.412 µM. In assay [2], the inhibition entry was “inactive”.

Turning to `NS(=O)(=O)c1ccc(-n2ncc3c2-c2cccnc2SC3)cc1`, the Ki was 0.273 µM at Carbonic anhydrase 2, 0.286 µM in assay [1], 2.34 µM on Carbonic anhydrase 9 and 0.134 µM in assay [3]. The inhibition result in assay [2] is “inactive”.

On to `Cc1ccc(-c2cc(C(F)(F)F)nn2-c2ccc(S(N)(=O)=O)cc2)cc1` [CELECOXIB], for which the inhibition constant Ki was found to be 7.76 µM in assay [1] and 7.4 µM at Carbonic anhydrase 3.
